Legend:
[1] = tested on: HepG2 (hepatocellular carcinoma cell line G2); assay: HepG2 high-content cell-imaging assays (mitochondrial poison); format: cell-based, human
Description: (§1) There are 467 cell-free or cell-based assays.

[2] = target: matrix metalloproteinase (MMP)3 (Homo sapiens, UniProt P08254); assay: Cell-free HTS assay, direct interaction with MMP3; format: biochemical
Description: as §1

PPARγ = target: T1, PPARγ (Homo sapiens, UniProt P37231); assay: PPARγ assays
T1 sequence (P37231 1-505): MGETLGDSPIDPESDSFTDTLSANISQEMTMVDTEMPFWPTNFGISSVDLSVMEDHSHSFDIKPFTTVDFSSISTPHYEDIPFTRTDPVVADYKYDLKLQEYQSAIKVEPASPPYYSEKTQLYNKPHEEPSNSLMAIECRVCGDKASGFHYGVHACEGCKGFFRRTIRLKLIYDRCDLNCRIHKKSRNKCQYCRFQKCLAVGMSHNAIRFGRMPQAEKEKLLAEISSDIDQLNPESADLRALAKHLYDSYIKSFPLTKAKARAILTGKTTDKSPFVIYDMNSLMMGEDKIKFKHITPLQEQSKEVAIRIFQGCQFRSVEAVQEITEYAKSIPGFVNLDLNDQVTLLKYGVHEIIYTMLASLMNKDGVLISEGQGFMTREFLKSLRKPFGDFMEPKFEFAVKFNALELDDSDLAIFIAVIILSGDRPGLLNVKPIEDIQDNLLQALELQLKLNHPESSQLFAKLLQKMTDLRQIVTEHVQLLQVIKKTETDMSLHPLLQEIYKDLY
Description: We screened the chemical library using nine separate assay technologies, with assays run in concentration–response format and in some cases with multiple time points. Assays encompass both direct, primary interactions between chemicals and molecular targets and downstream cellular events such as gene expression. […] There are 467 cell-free or cell-based assays. Assay sets include biochemical HTS and cell-based HTS assays measuring direct molecular interactions with specific protein targets; high-content cell-imaging assays measuring complex cellular phenotypes; a multiplexed gene expression assay for xenobiotic metabolizing enzymes and transporters in human primary hepatocytes; multiplexed transcription factor reporter assays; multiplexed biological activity profiling assays measuring biomarkers in a variety of human primary cell cocultures; assays measuring effects of phase I and II xenobiotic metabolizing enzyme (XMEs) on cytotoxicity; an HTS genotoxicity assay; and a real-time cellular impedance assay that measures the kinetics of cell growth and changes in morphology. For all cell-based assays, time points were selected on the basis of studies conducted during the assay development and were considered optimal for the end point being evaluated.
A total of 624 in vitro assay end points (including multiple time points) were measured for each chemical, generating > 200,000 concentration responses. […] In all cases we report a characteristic micromolar concentration for each chemical–assay combination.

MMP13 = MMP13 (Homo sapiens, UniProt P45452); assay: Cell-free HTS assay, direct interaction with MMP13; format: biochemical
Description: as §1

PPARα = target: T2, PPARα (Homo sapiens, UniProt Q07869); assay: PPARα assays
T2 sequence (Q07869 1-468): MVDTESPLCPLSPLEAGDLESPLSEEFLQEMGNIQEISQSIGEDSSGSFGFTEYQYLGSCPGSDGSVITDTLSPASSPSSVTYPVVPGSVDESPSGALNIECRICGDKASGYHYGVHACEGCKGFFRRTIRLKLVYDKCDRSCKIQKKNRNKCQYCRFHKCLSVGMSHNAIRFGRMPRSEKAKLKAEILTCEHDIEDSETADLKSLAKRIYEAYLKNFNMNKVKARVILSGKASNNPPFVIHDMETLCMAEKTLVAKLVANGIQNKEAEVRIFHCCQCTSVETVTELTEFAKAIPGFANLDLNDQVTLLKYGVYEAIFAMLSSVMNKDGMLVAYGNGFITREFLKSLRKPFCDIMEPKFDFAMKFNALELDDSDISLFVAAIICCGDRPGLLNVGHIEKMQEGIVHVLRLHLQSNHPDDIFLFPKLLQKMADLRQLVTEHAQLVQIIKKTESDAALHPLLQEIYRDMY
Description: as §1

MMP9 = assay: Cell-based assay, perturbation of MMP9 levels
Description: as §1

MMP1 = assay: Cell-based assay, perturbation of MMP1 levels
Description: as §1

matrix metalloproteinase (MMP)3, sequence (P08254 100-477): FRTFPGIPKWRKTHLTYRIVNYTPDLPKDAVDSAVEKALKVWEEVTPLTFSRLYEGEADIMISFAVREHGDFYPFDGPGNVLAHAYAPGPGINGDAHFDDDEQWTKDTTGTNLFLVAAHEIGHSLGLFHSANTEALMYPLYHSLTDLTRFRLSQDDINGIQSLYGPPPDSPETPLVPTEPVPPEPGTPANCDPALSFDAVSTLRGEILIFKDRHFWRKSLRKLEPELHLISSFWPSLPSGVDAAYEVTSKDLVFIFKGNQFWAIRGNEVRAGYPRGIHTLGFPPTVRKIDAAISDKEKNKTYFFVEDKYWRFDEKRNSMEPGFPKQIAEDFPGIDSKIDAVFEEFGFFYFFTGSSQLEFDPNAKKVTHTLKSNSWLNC

SMILES	Mitochondrial poison activity in HepG2 high-content cell imaging [1]	Activity in PPARγ assays (PPARγ)	Activity in PPARα assays (PPARα)	other results
CO/N=C(/C1=NOCCO1)c1ccccc1Oc1ncnc(Oc2ccccc2Cl)c1F [fluoxastrobin]	active mitochondrial poisons	–	–	–
COC(=O)N(OC)c1ccccc1COc1ccn(-c2ccc(Cl)cc2)n1 [pyraclostrobin]	active mitochondrial poisons	–	–	–
O=S(=O)(O)C(F)(F)C(F)(F)C(F)(F)C(F)(F)C(F)(F)C(F)(F)C(F)(F)C(F)(F)F [PFOS, perfluorooctane sulfonic acid]	–	positive	all but PFOS were also active	AC50 [2]: 14.6 µM; AC50 (MMP13): 32.4 µM; AC50 (MMP9): 4.4 µM; AC50 (MMP1): 13.3 µM
O=C(O)C(F)(F)C(F)(F)C(F)(F)C(F)(F)C(F)(F)C(F)(F)C(F)(F)F [PFOA, perfluorooctanoic acid]	–	–	active	–
CCOC(=O)C(C)OC(=O)c1cc(Oc2ccc(C(F)(F)F)cc2Cl)ccc1[N+](=O)[O-] (centres unmarked) [lactofen]	–	positive	active	–
CCCCC(CC)COC(=O)c1ccccc1C(=O)OCC(CC)CCCC (centres unmarked) [diethylhexyl phthalate]	–	positive	active	–
CO/C=C(/C(=O)OC)c1ccccc1Oc1cc(Oc2ccccc2C#N)ncn1 [Azoxystrobin]	active mitochondrial poisons	–	–	–

Reference: publication PMC2854724, “In Vitro Screening of Environmental Chemicals for Targeted Testing Prioritization: The ToxCast Project” (Environmental Health Perspectives, 2009)
